Earlier results as cited in patent US20110015368A1, “CD4-RECEPTOR-DERIVED PEPTIDES AND METHOD FOR THE PREPARATION THEREOF” (priority 2006, published 2011).

System: HIV
Conditions: Esté et al. 1997

| Substance | Inhibiting the infection of cells by HIV |
| --- | --- |
| chondroitin sulphate | not |
| dextran sulphate | capable of inhibiting the infection of cells by HIV |
| heparin | capable of inhibiting the infection of cells by HIV |
